According to patent US20080103205A1, “Pesticidal compositions and methods of use” (priority 2006, published 2008):
Where two headings read alike, the source gives them in different places.

Columns and labels:
Meloidogyne incognita = test: Toxicity test, J2 juveniles of Meloidogyne incognita, 96 well micro plate; assay type: in vivo; settings: Meloidogyne incognita
Experimental: (§1) Methodology: Toxicity tests were conducted using J2 juveniles of Meloidogyne incognita adult Caenorhabditis elegans collected from nematode-infested tomato plant roots and culture Petri plates, respectively. Test concentrations of 50, 100, 200, 300, or 400 ppm were prepared in 0.2% dimethylsulfoxide (DMSO) in tap water. Aliquots (300 microliters (ul)) were applied to a 96 well micro plate and a 20 ul aqueous solution containing nematodes was added. The number of nematodes in 20 ul ranged from 17 to 30. Micro plates were sealed with Parafilm™ and incubated at room temperature. Similar tests conducted with 0.2% DMSO in tap water served as controls. Nematode mortality was checked at 24, 48, 72, 120, and 168 hr after incubation. Nematodes that were motionless for 30 sec when observed under a stereomicroscope were considered paralyzed and included in mortality counts. Each concentration was replicated five times and mean percent mortality was calculated after correcting for control mortality using Abbott's formula.
(§2) Data Analysis: Mortality data were analyzed using PROC PROBIT (SAS) program and LC50 values were estimated.

Caenorhabditis elegans = test: Toxicity test, adult Caenorhabditis elegans, 96 well micro plate; assay type: in vivo; settings: Caenorhabditis elegans
Experimental: as §1, §2

[1] = 24 h, read-out: Corrected Mortality (%)
[2] = 48 h, read-out: Corrected Mortality (%)
[3] = 72 h, read-out: Corrected Mortality (%)
[4] = 120 h, read-out: Corrected Mortality (%)
[5] = 168 h, read-out: Corrected Mortality (%)

O=C(O)c1c2ccccc2cc2ccccc12 [9-AC, anthracene-9-carboxylic acid]
mortality at 50 ppm (Meloidogyne incognita; 24 h): 11% | mortality at 100 ppm (Meloidogyne incognita; 24 h): 12% | mortality at 200 ppm (Meloidogyne incognita; 24 h): 13% | mortality at 300 ppm (Meloidogyne incognita; 24 h): 16% | mortality at 400 ppm (Meloidogyne incognita; 24 h): 23% | mortality at 50 ppm (Meloidogyne incognita; [1]): 10% | mortality at 100 ppm (Meloidogyne incognita; [1]): 11% | mortality at 200 ppm (Meloidogyne incognita; [1]): 12% | mortality at 300 ppm (Meloidogyne incognita; [1]): 15% | mortality at 400 ppm (Meloidogyne incognita; [1]): 22% | mortality at 50 ppm (Meloidogyne incognita; 48 h): 21% | mortality at 100 ppm (Meloidogyne incognita; 48 h): 27% | mortality at 200 ppm (Meloidogyne incognita; 48 h): 28% | mortality at 300 ppm (Meloidogyne incognita; 48 h): 37% | mortality at 400 ppm (Meloidogyne incognita; 48 h): 49% | mortality at 50 ppm (Meloidogyne incognita; [2]): 17% | mortality at 100 ppm (Meloidogyne incognita; [2]): 23% | mortality at 200 ppm (Meloidogyne incognita; [2]): 24% | mortality at 300 ppm (Meloidogyne incognita; [2]): 34% | mortality at 400 ppm (Meloidogyne incognita; [2]): 46% | mortality at 50 ppm (Meloidogyne incognita; 72 h): 36% | mortality at 100 ppm (Meloidogyne incognita; 72 h): 43% | mortality at 200 ppm (Meloidogyne incognita; 72 h): 49% | mortality at 300 ppm (Meloidogyne incognita; 72 h): 60% | mortality at 400 ppm (Meloidogyne incognita; 72 h): 74% | mortality at 50 ppm (Meloidogyne incognita; [3]): 32% | mortality at 100 ppm (Meloidogyne incognita; [3]): 39% | mortality at 200 ppm (Meloidogyne incognita; [3]): 46% | mortality at 300 ppm (Meloidogyne incognita; [3]): 57% | mortality at 400 ppm (Meloidogyne incognita; [3]): 72% | mortality at 50 ppm (Meloidogyne incognita; 120 h): 58% | mortality at 100 ppm (Meloidogyne incognita; 120 h): 65% | mortality at 200 ppm (Meloidogyne incognita; 120 h): 67% | mortality at 300 ppm (Meloidogyne incognita; 120 h): 84% | mortality at 400 ppm (Meloidogyne incognita; 120 h): 97% | mortality at 50 ppm (Meloidogyne incognita; [4]): 54% | mortality at 100 ppm (Meloidogyne incognita; [4]): 62% | mortality at 200 ppm (Meloidogyne incognita; [4]): 64% | mortality at 300 ppm (Meloidogyne incognita; [4]): 83% | mortality at 400 ppm (Meloidogyne incognita; [4]): 97% | mortality at 50 ppm (Meloidogyne incognita; 168 h): 81% | mortality at 100 ppm (Meloidogyne incognita; 168 h): 86% | mortality at 200 ppm (Meloidogyne incognita; 168 h): 91% | mortality at 300 ppm (Meloidogyne incognita; 168 h): 100% | mortality at 400 ppm (Meloidogyne incognita; 168 h): 100% | mortality at 50 ppm (Meloidogyne incognita; [5]): 79% | mortality at 100 ppm (Meloidogyne incognita; [5]): 84% | mortality at 200 ppm (Meloidogyne incognita; [5]): 89% | mortality at 300 ppm (Meloidogyne incognita; [5]): 100% | mortality at 400 ppm (Meloidogyne incognita; [5]): 100% | mortality at 50 ppm (Caenorhabditis elegans; 24 h): 12% | mortality at 100 ppm (Caenorhabditis elegans; 24 h): 14% | mortality at 200 ppm (Caenorhabditis elegans; 24 h): 16% | mortality at 300 ppm (Caenorhabditis elegans; 24 h): 20% | mortality at 400 ppm (Caenorhabditis elegans; 24 h): 27% | mortality at 50 ppm (Caenorhabditis elegans; [1]): 10% | mortality at 100 ppm (Caenorhabditis elegans; [1]): 12% | mortality at 200 ppm (Caenorhabditis elegans; [1]): 14% | mortality at 300 ppm (Caenorhabditis elegans; [1]): 18% | mortality at 400 ppm (Caenorhabditis elegans; [1]): 26% | mortality at 50 ppm (Caenorhabditis elegans; 48 h): 25% | mortality at 100 ppm (Caenorhabditis elegans; 48 h): 30% | mortality at 200 ppm (Caenorhabditis elegans; 48 h): 33% | mortality at 300 ppm (Caenorhabditis elegans; 48 h): 39% | mortality at 400 ppm (Caenorhabditis elegans; 48 h): 58% | mortality at 50 ppm (Caenorhabditis elegans; [2]): 23% | mortality at 100 ppm (Caenorhabditis elegans; [2]): 28% | mortality at 200 ppm (Caenorhabditis elegans; [2]): 31% | mortality at 300 ppm (Caenorhabditis elegans; [2]): 37% | mortality at 400 ppm (Caenorhabditis elegans; [2]): 57% | mortality at 50 ppm (Caenorhabditis elegans; 72 h): 44% | mortality at 100 ppm (Caenorhabditis elegans; 72 h): 48% | mortality at 200 ppm (Caenorhabditis elegans; 72 h): 58% | mortality at 300 ppm (Caenorhabditis elegans; 72 h): 65% | mortality at 400 ppm (Caenorhabditis elegans; 72 h): 83% | mortality at 50 ppm (Caenorhabditis elegans; [3]): 41% | mortality at 100 ppm (Caenorhabditis elegans; [3]): 45% | mortality at 200 ppm (Caenorhabditis elegans; [3]): 56% | mortality at 300 ppm (Caenorhabditis elegans; [3]): 63% | mortality at 400 ppm (Caenorhabditis elegans; [3]): 81% | mortality at 50 ppm (Caenorhabditis elegans; 120 h): 66% | mortality at 100 ppm (Caenorhabditis elegans; 120 h): 73% | mortality at 200 ppm (Caenorhabditis elegans; 120 h): 85% | mortality at 300 ppm (Caenorhabditis elegans; 120 h): 90% | mortality at 400 ppm (Caenorhabditis elegans; 120 h): 99% | mortality at 50 ppm (Caenorhabditis elegans; [4]): 64% | mortality at 100 ppm (Caenorhabditis elegans; [4]): 71% | mortality at 200 ppm (Caenorhabditis elegans; [4]): 84% | mortality at 300 ppm (Caenorhabditis elegans; [4]): 89% | mortality at 400 ppm (Caenorhabditis elegans; [4]): 99% | mortality at 50 ppm (Caenorhabditis elegans; 168 h): 89% | mortality at 100 ppm (Caenorhabditis elegans; 168 h): 93% | mortality at 200 ppm (Caenorhabditis elegans; 168 h): 98% | mortality at 300 ppm (Caenorhabditis elegans; 168 h): 100% | mortality at 400 ppm (Caenorhabditis elegans; 168 h): 100% | mortality at 50 ppm (Caenorhabditis elegans; [5]): 89% | mortality at 100 ppm (Caenorhabditis elegans; [5]): 92% | mortality at 200 ppm (Caenorhabditis elegans; [5]): 98% | mortality at 300 ppm (Caenorhabditis elegans; [5]): 100% | mortality at 400 ppm (Caenorhabditis elegans; [5]): 100%

O=C(O)c1cc([N+](=O)[O-])ccc1NCCCc1ccccc1 [NPPB, 5-Nitro-2-(3-phenylpropylamino)benzoic acid]
mortality at 50 ppm (Meloidogyne incognita; 24 h): 12% | mortality at 100 ppm (Meloidogyne incognita; 24 h): 14% | mortality at 200 ppm (Meloidogyne incognita; 24 h): 18% | mortality at 300 ppm (Meloidogyne incognita; 24 h): 20% | mortality at 400 ppm (Meloidogyne incognita; 24 h): 27% | mortality at 50 ppm (Meloidogyne incognita; [1]): 8% | mortality at 100 ppm (Meloidogyne incognita; [1]): 10% | mortality at 200 ppm (Meloidogyne incognita; [1]): 15% | mortality at 300 ppm (Meloidogyne incognita; [1]): 17% | mortality at 400 ppm (Meloidogyne incognita; [1]): 24% | mortality at 50 ppm (Meloidogyne incognita; 48 h): 22% | mortality at 100 ppm (Meloidogyne incognita; 48 h): 32% | mortality at 200 ppm (Meloidogyne incognita; 48 h): 41% | mortality at 300 ppm (Meloidogyne incognita; 48 h): 43% | mortality at 400 ppm (Meloidogyne incognita; 48 h): 56% | mortality at 50 ppm (Meloidogyne incognita; [2]): 17% | mortality at 100 ppm (Meloidogyne incognita; [2]): 28% | mortality at 200 ppm (Meloidogyne incognita; [2]): 37% | mortality at 300 ppm (Meloidogyne incognita; [2]): 39% | mortality at 400 ppm (Meloidogyne incognita; [2]): 53% | mortality at 50 ppm (Meloidogyne incognita; 72 h): 40% | mortality at 100 ppm (Meloidogyne incognita; 72 h): 51% | mortality at 200 ppm (Meloidogyne incognita; 72 h): 66% | mortality at 300 ppm (Meloidogyne incognita; 72 h): 73% | mortality at 400 ppm (Meloidogyne incognita; 72 h): 82% | mortality at 50 ppm (Meloidogyne incognita; [3]): 33% | mortality at 100 ppm (Meloidogyne incognita; [3]): 45% | mortality at 200 ppm (Meloidogyne incognita; [3]): 62% | mortality at 300 ppm (Meloidogyne incognita; [3]): 70% | mortality at 400 ppm (Meloidogyne incognita; [3]): 80% | mortality at 50 ppm (Meloidogyne incognita; 120 h): 62% | mortality at 100 ppm (Meloidogyne incognita; 120 h): 73% | mortality at 200 ppm (Meloidogyne incognita; 120 h): 90% | mortality at 300 ppm (Meloidogyne incognita; 120 h): 97% | mortality at 400 ppm (Meloidogyne incognita; 120 h): 100% | mortality at 50 ppm (Meloidogyne incognita; [4]): 56% | mortality at 100 ppm (Meloidogyne incognita; [4]): 69% | mortality at 200 ppm (Meloidogyne incognita; [4]): 89% | mortality at 300 ppm (Meloidogyne incognita; [4]): 97% | mortality at 400 ppm (Meloidogyne incognita; [4]): 100% | mortality at 50 ppm (Meloidogyne incognita; 168 h): 89% | mortality at 100 ppm (Meloidogyne incognita; 168 h): 93% | mortality at 200 ppm (Meloidogyne incognita; 168 h): 99% | mortality at 300 ppm (Meloidogyne incognita; 168 h): 100% | mortality at 400 ppm (Meloidogyne incognita; 168 h): 100% | mortality at 50 ppm (Meloidogyne incognita; [5]): 87% | mortality at 100 ppm (Meloidogyne incognita; [5]): 92% | mortality at 200 ppm (Meloidogyne incognita; [5]): 99% | mortality at 300 ppm (Meloidogyne incognita; [5]): 100% | mortality at 400 ppm (Meloidogyne incognita; [5]): 100% | mortality at 50 ppm (Caenorhabditis elegans; 24 h): 14% | mortality at 100 ppm (Caenorhabditis elegans; 24 h): 17% | mortality at 200 ppm (Caenorhabditis elegans; 24 h): 20% | mortality at 300 ppm (Caenorhabditis elegans; 24 h): 22% | mortality at 400 ppm (Caenorhabditis elegans; 24 h): 24% | mortality at 50 ppm (Caenorhabditis elegans; [1]): 10% | mortality at 100 ppm (Caenorhabditis elegans; [1]): 14% | mortality at 200 ppm (Caenorhabditis elegans; [1]): 18% | mortality at 300 ppm (Caenorhabditis elegans; [1]): 20% | mortality at 400 ppm (Caenorhabditis elegans; [1]): 22% | mortality at 50 ppm (Caenorhabditis elegans; 48 h): 26% | mortality at 100 ppm (Caenorhabditis elegans; 48 h): 36% | mortality at 200 ppm (Caenorhabditis elegans; 48 h): 44% | mortality at 300 ppm (Caenorhabditis elegans; 48 h): 49% | mortality at 400 ppm (Caenorhabditis elegans; 48 h): 53% | mortality at 50 ppm (Caenorhabditis elegans; [2]): 22% | mortality at 100 ppm (Caenorhabditis elegans; [2]): 33% | mortality at 200 ppm (Caenorhabditis elegans; [2]): 41% | mortality at 300 ppm (Caenorhabditis elegans; [2]): 46% | mortality at 400 ppm (Caenorhabditis elegans; [2]): 51% | mortality at 50 ppm (Caenorhabditis elegans; 72 h): 47% | mortality at 100 ppm (Caenorhabditis elegans; 72 h): 62% | mortality at 200 ppm (Caenorhabditis elegans; 72 h): 73% | mortality at 300 ppm (Caenorhabditis elegans; 72 h): 80% | mortality at 400 ppm (Caenorhabditis elegans; 72 h): 84% | mortality at 50 ppm (Caenorhabditis elegans; [3]): 43% | mortality at 100 ppm (Caenorhabditis elegans; [3]): 59% | mortality at 200 ppm (Caenorhabditis elegans; [3]): 71% | mortality at 300 ppm (Caenorhabditis elegans; [3]): 78% | mortality at 400 ppm (Caenorhabditis elegans; [3]): 83% | mortality at 50 ppm (Caenorhabditis elegans; 120 h): 70% | mortality at 100 ppm (Caenorhabditis elegans; 120 h): 85% | mortality at 200 ppm (Caenorhabditis elegans; 120 h): 93% | mortality at 300 ppm (Caenorhabditis elegans; 120 h): 97% | mortality at 400 ppm (Caenorhabditis elegans; 120 h): 100% | mortality at 50 ppm (Caenorhabditis elegans; [4]): 66% | mortality at 100 ppm (Caenorhabditis elegans; [4]): 83% | mortality at 200 ppm (Caenorhabditis elegans; [4]): 92% | mortality at 300 ppm (Caenorhabditis elegans; [4]): 97% | mortality at 400 ppm (Caenorhabditis elegans; [4]): 100% | mortality at 50 ppm (Caenorhabditis elegans; 168 h): 93% | mortality at 100 ppm (Caenorhabditis elegans; 168 h): 99% | mortality at 200 ppm (Caenorhabditis elegans; 168 h): 100% | mortality at 300 ppm (Caenorhabditis elegans; 168 h): 100% | mortality at 400 ppm (Caenorhabditis elegans; 168 h): 100% | mortality at 50 ppm (Caenorhabditis elegans; [5]): 92% | mortality at 100 ppm (Caenorhabditis elegans; [5]): 99% | mortality at 200 ppm (Caenorhabditis elegans; [5]): 100% | mortality at 300 ppm (Caenorhabditis elegans; [5]): 100% | mortality at 400 ppm (Caenorhabditis elegans; [5]): 100%
